# Source: PMC8683085, “Serine ADP-ribosylation marks nucleosomes for ALC1-dependent chromatin remodeling” (eLife, 2021)
# Like-named read-outs stand apart in the source and are kept apart here.
# Experiments:
# ALC1 macrodomain [1] = biological target: T1, ALC1 macrodomain (Homo sapiens, UniProt Q86WJ1); settings: free ADP-ribose molecules; ref Singh et al., 2017; cited from earlier work
# T1 construct: A fragment encoding amino acids 636–878, corresponding to the macrodomain; 6xHis-SUMO (N, cleaved yes); made in house; host or cells: E. coli Rosetta2 (DE3)
# T1 sequence (Q86WJ1 636-878): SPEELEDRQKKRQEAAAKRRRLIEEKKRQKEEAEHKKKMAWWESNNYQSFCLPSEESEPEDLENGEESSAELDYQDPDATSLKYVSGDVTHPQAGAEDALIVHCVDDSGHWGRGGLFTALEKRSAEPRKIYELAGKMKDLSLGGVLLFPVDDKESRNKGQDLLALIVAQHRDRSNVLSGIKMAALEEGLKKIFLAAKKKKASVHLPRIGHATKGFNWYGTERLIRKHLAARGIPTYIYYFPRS
# Excerpt: We therefore chose to pursue ALC1 for our initial ADP-ribosylated histone peptide interaction studies. Nine fluorescently-labeled, ADP-ribosylated histone peptides (H2BS6ADPr1-4 and H3S10ADPr ...
# ALC1 = biological target: T2, ALC1 (Homo sapiens, UniProt Q86WJ1); assay: Restriction enzyme accessibility (REA) nucleosome remodeling assay, single substrate, recombinant ALC1; format: biochemical; settings: for k, ALC1 remodeling rate constant on unmodified nucleosome in the presence of free ADP-ribosylated peptide: REA assay, 4 nM ALC1, unmodified nucleosome 20 nM, peptide 40 nM, 2 mM ATP, one-phase exponential decay fit, n = 3
# T2 sequence (Q86WJ1 1-897): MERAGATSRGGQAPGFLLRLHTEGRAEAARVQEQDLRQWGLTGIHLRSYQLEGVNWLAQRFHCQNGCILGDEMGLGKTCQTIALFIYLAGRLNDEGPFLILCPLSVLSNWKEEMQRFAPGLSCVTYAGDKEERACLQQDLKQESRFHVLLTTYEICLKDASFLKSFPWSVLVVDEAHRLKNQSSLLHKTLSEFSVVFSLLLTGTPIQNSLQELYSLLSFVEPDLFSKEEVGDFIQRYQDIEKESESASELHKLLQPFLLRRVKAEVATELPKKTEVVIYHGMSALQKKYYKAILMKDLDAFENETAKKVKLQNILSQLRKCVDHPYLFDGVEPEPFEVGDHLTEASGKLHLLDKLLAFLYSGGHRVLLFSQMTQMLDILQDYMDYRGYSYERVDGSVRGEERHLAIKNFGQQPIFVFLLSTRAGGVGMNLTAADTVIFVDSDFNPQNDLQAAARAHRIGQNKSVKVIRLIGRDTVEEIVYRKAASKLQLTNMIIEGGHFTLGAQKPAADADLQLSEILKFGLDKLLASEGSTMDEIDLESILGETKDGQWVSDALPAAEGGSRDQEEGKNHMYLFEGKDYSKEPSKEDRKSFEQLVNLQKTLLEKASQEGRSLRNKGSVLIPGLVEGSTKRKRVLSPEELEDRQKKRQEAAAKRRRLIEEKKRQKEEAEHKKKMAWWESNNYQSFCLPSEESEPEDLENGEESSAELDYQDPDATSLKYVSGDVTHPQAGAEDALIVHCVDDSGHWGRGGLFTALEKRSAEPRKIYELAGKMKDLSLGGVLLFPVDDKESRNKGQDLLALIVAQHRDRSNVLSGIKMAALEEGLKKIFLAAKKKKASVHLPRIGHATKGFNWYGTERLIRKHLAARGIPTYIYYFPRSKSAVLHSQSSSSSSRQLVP
# Description: REA assays and analysis were performed as previously described ([Dann et al., 2017]) with several modifications. Nucleosome remodeling reactions (25 μL) were carried out in REA Buffer (12 mM HEPES, pH 7.9, 4 mM Tris, pH 7.5, 60 mM KCl, 10 mM MgCl2, 10% glycerol, and 0.02% NP-40) including 1 μL of PstI (NEB, at 100,000 U/mL), 2 mM ATP (Sigma-Aldrich), and final concentrations of 4 nM ALC1 or 10 nM CHD4 and 20 nM of the desired nucleosome substrate. The reaction was incubated for 5 min prior to addition of chromatin remodeler to ensure that any trace amount of free DNA from the nucleosome assembly was digested prior to initiating the reaction. This is required to ensure that free DNA digestion can be assigned as background activity and is not interpreted as enzyme-dependent nucleosome remodeling in data processing. To each reaction, 37.5 μL of Quench Buffer (20 mM Tris, pH 7.5, 70 mM EDTA, pH 8, 2% SDS, 10% glycerol) was added at time points of 0, 3, 6, 18, 36, and 60 min. Samples were then deproteinized with 30 U/mL proteinase K (NEB) for 1 h at 37 °C. DNA purification was performed using the Qiagen PCR purification kit following manufacturer’s protocols. Purple Gel Loading Dye (6 X, NEB) was added to a final concentration of 1 X to the quenched reaction and samples were loaded onto a 5% TBE gel and run for 60 min at 150 volts in 0.5 X TBE Buffer (BioRad). Gels were stained with ethidium bromide and imaged on a BioRad ChemiDoc. Gel densitometry measurements were performed using ImageJ. For each lane, the total densitometry signal was calculated by adding the densitometry values corresponding to the PstI-digested species (lower band) and undigested species (upper band). The fraction unremodeled value for each lane was then calculated using the following formula: fraction unremodeled= signalundigested/signalundigested+ signaldigested […]
# [2] = biological target: T3, Af1521 macrodomain (fused to rabbit Fc tag) (Archaeoglobus fulgidus, UniProt O28751); assay: Fluorescence polarization binding of fluorescein-labeled ADP-ribosylated histone peptides to the Af1521 macrodomain (pan-ADP-ribose detection reagent); settings: fluorescein-labeled peptide 2 nM, reagent titrated 0-2000 nM (4000 nM for mono-/di-ADPr), 25 mM Tris pH 7.5, 100 mM NaCl, 2 mM MgCl2, 0.001% Triton X100, 1 mM DTT, one-site specific binding fit, n = 3, read-out: Kd,app
# T3 construct: Af1521 macrodomain fused to rabbit Fc tag, MilliporeSigma; purchased MilliporeSigma
# T3 sequence (O28751 1-192): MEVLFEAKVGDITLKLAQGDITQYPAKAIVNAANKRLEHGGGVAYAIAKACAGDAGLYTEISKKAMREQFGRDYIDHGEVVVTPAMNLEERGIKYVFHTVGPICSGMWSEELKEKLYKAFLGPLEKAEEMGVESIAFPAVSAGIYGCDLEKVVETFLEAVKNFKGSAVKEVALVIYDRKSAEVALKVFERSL
# ALC1 macrodomain [3] = biological target: T1, ALC1 macrodomain; assay: Fluorescence polarization binding of fluorescein-labeled ADP-ribosylated histone peptides to the ALC1 macrodomain
# Description: Each fluorescently-labeled H2B (unmodified, mono-, di-, tri-, and tetra-ADP-ribose at H2BS6) and H3 peptide (unmodified, mono-, di-, tri-, tetra-, or penta-ADP-ribose at H3S10) was diluted to 2 nM in a buffer containing 25 mM Tris, pH 7.5, 100 mM NaCl, 2 mM MgCl2, 0.001% Triton X100, and 1 mM DTT. Note, H3 elongates more efficiently than H2B and so the penta-ADP-ribosylated species could be isolated for this peptide. Peptide concentration was calculated via fluorescein extinction coefficient (A480 = 70,000). To analyze peptide:pan-ADP-ribose detection reagent (Af1521 macrodomain fused to rabbit Fc tag, MilliporeSigma) interaction, the pan-ADP-ribose detection reagent was titrated into each peptide to final concentrations ranging from 0 to 2000 nM (points represent 3 x dilutions starting from 2000 nM; a higher concentration of 4000 nM was also included for mono- and di-ADP-ribosylated peptides). To analyze peptide:ALC1-macrodomain interaction, the ALC1-macrodomain was titrated into each peptide to final concentrations ranging from 0 to 3000 nM (points represent 3 x dilutions starting from 3000 nM). Reactions were added to a black, flat-bottom 96-well plate (Corning Costar) and analyzed on a BioTek Cytation five imager equipped with a Green FP filter set (excitation: 485 nm, emission: 528 nm). […]
molecule,measurement,setting,value
tri-ADP-ribose,Kd,ALC1 macrodomain [1],~10 nM
H3S10ADPr4 peptide: H3 (1–20) peptide with tetra-ADP-ribose at S10; fluorescein-labeled in FP assays,stimulation of ALC1-dependent remodeling of unmodified nucleosomes by the freely diffusing peptide,"ALC1; ALC1, unmodified nucleosome 20 nM, peptide 10, 40 or 200 nM",unable to appreciably stimulate
same,"k, ALC1 remodeling rate constant on unmodified nucleosome in the presence of free ADP-ribosylated peptide",ALC1,8.323e-05 min⁻¹
CC(C)C[C@H](NC(=O)[C@H](CCC(N)=O)NC(=O)[C@H](CCCCN)NC(=O)[C@H](CCCNC(=N)N)NC(=O)[C@@H]1CCCN1C(=O)[C@H](C)NC(=O)[C@H](CCCCN)NC(=O)CNC(=O)CNC(=O)[C@@H](NC(=O)[C@H](CO[C@H]1O[C@H](COP(=O)(O)OP(=O)(O)OC[C@H]2O[C@@H](n3cnc4c(N)ncnc43)[C@H](O[C@H]3O[C@H](COP(=O)(O)OP(=O)(O)OC[C@H]4O[C@@H](n5cnc6c(N)ncnc65)[C@H](O[C@H]5O[C@H](COP(=O)(O)OP(=O)(O)OC[C@H]6O[C@@H](n7cnc8c(N)ncnc87)[C@H](O[C@H]7O[C@H](COP(=O)(O)OP(=O)(O)OC[C@H]8O[C@@H](n9cnc%10c(N)ncnc%109)[C@H](O[C@H]9O[C@H](COP(=O)(O)OP(=O)(O)OC[C@H]%10O[C@@H](n%11cnc%12c(N)ncnc%12%11)[C@H](O)[C@@H]%10O)[C@@H](O)[C@H]9O)[C@@H]8O)[C@@H](O)[C@H]7O)[C@@H]6O)[C@@H](O)[C@H]5O)[C@@H]4O)[C@@H](O)[C@H]3O)[C@@H]2O)[C@@H](O)[C@H]1O)NC(=O)[C@H](CCCCN)NC(=O)[C@H](CCCNC(=N)N)NC(=O)[C@H](C)NC(=O)[C@@H](NC(=O)[C@H](CCC(N)=O)NC(=O)[C@H](CCCCN)NC(=O)[C@@H](NC(=O)[C@H](CCCNC(=N)N)NC(=O)[C@H](C)NC(=O)c1ccc2c(c1)C(=O)OC21c2ccc(O)cc2Oc2cc(O)ccc21)[C@@H](C)O)[C@@H](C)O)[C@@H](C)O)C(N)=O [H3S10ADPr5 peptide],Kd,[2],42.5 nM
same,Kd,ALC1 macrodomain [3],27.9 nM
H2BS6ADPr4 peptide: H2B (1-16) peptide with tetra-ADP-ribose at S6; fluorescein-labeled in FP assays ({5(6)‑carboxyfluorescein}-PEPAKS(tetra‑ADP‑ribose)APAPKKGSKK-NH2),"k, ALC1 remodeling rate constant on unmodified nucleosome in the presence of free ADP-ribosylated peptide",ALC1,1.886e-05 min⁻¹
